Assay [1] has as its target Calcium/calmodulin-dependent protein kinase type II subunit delta (Homo sapiens) (UniProt Q13557). The assay is described as follows: Inhibition of CAMK2D (unknown origin) assessed as residual activity at 100 nM by KINOMEscan analysis relative to control.
The target of assay [2] is T1, Inhibitor of nuclear factor kappa-B kinase subunit alpha (Homo sapiens) (UniProt O15111).
T1 sequence (whole entry): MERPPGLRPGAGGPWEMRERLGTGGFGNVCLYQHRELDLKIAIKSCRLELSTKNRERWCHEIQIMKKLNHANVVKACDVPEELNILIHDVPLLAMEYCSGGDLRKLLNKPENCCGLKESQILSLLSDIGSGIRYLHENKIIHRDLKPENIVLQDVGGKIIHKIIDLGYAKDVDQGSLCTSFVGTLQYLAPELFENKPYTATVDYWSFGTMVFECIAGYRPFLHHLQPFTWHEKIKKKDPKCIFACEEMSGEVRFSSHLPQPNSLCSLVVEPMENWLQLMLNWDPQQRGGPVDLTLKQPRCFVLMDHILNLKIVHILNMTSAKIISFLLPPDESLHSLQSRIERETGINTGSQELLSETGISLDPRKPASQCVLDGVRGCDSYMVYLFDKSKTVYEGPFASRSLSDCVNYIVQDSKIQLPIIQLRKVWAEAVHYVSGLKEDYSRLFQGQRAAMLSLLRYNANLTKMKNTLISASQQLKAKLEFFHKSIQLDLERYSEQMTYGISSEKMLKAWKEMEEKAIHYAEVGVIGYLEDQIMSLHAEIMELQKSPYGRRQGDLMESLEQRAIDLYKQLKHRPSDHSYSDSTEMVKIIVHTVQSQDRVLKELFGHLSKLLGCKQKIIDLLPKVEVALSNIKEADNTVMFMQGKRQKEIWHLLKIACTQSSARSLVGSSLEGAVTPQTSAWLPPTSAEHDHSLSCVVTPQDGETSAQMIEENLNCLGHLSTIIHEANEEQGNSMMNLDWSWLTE
The assay is described as follows: Inhibition of IKK-alpha (unknown origin) assessed as residual activity at 100 nM by KINOMEscan analysis relative to control.

Assay [3] addresses Casein kinase II subunit alpha (Homo sapiens) (UniProt P68400). The assay is described as follows: Inhibition of CSNK2A1 (unknown origin) assessed as residual activity at 100 nM by KINOMEscan analysis relative to control.
Assay [4] has as its target Mast/stem cell growth factor receptor Kit (Homo sapiens) (UniProt P10721). The assay is described as follows: Inhibition of autoinhibited KIT (unknown origin) assessed as residual activity at 100 nM by KINOMEscan analysis relative to control.
In assay [5] the target is T2, Tyrosine-protein kinase TXK (Homo sapiens) (UniProt P42681).
T2 sequence (whole entry): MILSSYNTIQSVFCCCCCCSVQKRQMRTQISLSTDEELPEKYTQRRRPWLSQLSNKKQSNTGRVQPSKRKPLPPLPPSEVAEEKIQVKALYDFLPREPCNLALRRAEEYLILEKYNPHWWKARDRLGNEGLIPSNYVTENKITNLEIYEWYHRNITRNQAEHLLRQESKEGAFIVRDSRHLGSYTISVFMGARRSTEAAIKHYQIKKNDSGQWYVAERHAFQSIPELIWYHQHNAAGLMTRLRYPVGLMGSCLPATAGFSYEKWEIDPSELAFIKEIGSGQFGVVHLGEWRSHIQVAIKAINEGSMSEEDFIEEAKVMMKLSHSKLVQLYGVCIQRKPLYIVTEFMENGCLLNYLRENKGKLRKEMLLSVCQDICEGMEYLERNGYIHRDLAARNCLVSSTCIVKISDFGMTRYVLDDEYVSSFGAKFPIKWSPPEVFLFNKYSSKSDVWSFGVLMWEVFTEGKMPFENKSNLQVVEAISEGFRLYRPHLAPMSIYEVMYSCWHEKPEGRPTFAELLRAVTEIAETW
Kind of assay: Inhibition of TXK (unknown origin) assessed as residual activity at 100 nM by KINOMEscan analysis relative to control.

Assay [6] has as its target T3, Serine/threonine-protein kinase LATS2 (Homo sapiens) (UniProt Q9NRM7).
T3 sequence (whole entry): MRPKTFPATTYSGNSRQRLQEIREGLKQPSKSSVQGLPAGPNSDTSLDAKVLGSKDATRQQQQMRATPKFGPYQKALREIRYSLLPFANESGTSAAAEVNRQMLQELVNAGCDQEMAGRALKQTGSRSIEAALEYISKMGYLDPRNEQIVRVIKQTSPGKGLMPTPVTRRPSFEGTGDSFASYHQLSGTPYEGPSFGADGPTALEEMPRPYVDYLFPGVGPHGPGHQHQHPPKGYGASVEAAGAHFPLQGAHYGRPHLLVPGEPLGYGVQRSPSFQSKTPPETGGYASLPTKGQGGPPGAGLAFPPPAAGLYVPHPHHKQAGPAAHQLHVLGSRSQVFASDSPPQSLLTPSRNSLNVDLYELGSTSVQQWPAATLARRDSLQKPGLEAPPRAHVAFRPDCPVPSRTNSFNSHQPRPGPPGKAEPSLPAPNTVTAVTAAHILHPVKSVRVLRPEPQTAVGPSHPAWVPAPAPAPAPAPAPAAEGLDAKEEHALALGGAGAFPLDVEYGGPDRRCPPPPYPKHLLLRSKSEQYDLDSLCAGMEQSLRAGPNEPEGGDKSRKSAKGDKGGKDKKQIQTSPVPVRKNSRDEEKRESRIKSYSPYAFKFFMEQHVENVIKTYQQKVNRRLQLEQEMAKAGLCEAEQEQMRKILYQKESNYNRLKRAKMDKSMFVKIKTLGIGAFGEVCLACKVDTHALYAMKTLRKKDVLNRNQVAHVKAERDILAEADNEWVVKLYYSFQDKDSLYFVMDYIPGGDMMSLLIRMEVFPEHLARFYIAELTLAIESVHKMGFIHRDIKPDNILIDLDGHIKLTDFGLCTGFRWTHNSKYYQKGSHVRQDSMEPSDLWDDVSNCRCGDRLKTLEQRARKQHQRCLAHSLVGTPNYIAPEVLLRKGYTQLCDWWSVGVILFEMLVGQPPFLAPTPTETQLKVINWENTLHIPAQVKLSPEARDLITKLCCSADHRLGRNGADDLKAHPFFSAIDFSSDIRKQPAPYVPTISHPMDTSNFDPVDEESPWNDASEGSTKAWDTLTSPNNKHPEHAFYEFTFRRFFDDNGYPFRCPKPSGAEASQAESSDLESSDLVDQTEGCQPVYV
Kind of assay: Inhibition of LATS2 (unknown origin) assessed as residual activity at 100 nM by KINOMEscan analysis relative to control.

Assay [7] concerns the target Platelet-derived growth factor receptor alpha (Homo sapiens) (UniProt P16234). Kind of assay: Inhibition of PDGFRA (unknown origin) assessed as residual activity at 100 nM by KINOMEscan analysis relative to control.
For assay [8], the target named is Cyclin-dependent kinase 11B (Homo sapiens) (UniProt P21127). Kind of assay: Inhibition of CDK11 (unknown origin) assessed as residual activity at 100 nM by KINOMEscan analysis relative to control.

Each structure is given as a SMILES string.

Platelet-derived growth factor receptor alpha (Homo sapiens), sequence (P16234 whole entry): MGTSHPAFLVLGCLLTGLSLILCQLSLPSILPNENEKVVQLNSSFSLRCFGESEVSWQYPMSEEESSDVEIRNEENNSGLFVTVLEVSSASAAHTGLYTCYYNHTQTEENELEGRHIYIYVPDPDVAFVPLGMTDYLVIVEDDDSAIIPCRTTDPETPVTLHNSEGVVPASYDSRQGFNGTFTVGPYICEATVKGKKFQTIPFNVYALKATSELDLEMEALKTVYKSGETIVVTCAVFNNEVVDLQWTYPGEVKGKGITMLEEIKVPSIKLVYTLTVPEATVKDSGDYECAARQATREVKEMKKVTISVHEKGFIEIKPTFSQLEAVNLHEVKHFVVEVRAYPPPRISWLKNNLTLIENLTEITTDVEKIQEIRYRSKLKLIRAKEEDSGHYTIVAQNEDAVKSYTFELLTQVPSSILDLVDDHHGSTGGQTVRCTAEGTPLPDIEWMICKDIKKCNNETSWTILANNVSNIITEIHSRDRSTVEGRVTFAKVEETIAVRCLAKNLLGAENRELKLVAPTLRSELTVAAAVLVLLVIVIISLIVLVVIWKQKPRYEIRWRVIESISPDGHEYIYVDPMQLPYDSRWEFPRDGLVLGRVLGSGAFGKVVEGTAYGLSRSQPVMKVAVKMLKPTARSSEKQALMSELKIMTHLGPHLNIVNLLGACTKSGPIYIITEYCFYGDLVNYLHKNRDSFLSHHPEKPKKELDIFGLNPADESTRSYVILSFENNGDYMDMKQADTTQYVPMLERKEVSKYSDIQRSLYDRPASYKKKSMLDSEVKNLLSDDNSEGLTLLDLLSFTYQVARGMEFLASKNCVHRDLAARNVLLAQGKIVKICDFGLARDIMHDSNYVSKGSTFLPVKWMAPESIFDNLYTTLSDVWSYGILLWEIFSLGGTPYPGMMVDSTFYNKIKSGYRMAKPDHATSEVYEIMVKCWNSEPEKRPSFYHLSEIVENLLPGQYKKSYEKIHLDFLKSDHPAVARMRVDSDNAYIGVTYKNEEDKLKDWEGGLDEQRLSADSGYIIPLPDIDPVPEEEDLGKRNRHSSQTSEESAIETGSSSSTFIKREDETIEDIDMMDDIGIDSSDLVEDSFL
Mast/stem cell growth factor receptor Kit (Homo sapiens), sequence (P10721 whole entry): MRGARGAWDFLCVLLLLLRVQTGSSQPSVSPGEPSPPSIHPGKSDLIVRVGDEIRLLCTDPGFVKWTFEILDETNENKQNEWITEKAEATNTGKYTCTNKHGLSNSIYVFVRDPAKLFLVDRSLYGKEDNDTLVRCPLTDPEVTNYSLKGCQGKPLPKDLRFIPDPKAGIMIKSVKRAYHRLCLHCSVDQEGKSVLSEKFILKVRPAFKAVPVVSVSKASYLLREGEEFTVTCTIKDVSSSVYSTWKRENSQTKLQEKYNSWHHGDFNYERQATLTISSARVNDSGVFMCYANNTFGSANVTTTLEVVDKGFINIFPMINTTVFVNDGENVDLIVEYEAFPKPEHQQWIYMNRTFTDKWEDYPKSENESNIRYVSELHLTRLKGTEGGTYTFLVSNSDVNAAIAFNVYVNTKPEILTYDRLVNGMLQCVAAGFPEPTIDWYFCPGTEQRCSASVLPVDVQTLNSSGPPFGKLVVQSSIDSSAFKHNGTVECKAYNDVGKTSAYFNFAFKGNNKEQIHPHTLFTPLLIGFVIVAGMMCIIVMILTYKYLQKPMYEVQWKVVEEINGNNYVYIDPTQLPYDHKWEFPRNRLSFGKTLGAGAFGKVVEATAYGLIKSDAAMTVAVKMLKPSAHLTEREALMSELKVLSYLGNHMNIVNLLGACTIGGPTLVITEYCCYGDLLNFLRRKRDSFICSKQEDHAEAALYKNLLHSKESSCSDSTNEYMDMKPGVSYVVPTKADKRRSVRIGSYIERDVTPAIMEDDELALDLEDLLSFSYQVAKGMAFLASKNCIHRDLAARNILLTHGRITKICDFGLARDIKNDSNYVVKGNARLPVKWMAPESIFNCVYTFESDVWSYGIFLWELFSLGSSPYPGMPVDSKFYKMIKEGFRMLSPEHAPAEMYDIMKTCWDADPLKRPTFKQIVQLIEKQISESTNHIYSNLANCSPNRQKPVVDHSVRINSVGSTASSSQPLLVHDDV
Calcium/calmodulin-dependent protein kinase type II subunit delta (Homo sapiens), sequence (Q13557 whole entry): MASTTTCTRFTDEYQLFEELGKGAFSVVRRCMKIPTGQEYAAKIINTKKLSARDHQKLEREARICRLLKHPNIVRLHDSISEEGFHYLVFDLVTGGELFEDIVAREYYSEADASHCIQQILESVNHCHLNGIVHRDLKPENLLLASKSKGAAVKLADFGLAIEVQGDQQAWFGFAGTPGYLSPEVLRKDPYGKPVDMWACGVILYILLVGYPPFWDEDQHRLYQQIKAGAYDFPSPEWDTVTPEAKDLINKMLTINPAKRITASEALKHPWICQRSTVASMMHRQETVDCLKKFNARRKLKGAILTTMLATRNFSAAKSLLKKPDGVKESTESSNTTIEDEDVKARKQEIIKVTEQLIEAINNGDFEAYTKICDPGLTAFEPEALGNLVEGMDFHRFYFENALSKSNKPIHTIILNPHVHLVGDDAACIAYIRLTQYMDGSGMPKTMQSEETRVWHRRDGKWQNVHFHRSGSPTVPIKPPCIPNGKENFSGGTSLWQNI
Cyclin-dependent kinase 11B (Homo sapiens), sequence (P21127 whole entry): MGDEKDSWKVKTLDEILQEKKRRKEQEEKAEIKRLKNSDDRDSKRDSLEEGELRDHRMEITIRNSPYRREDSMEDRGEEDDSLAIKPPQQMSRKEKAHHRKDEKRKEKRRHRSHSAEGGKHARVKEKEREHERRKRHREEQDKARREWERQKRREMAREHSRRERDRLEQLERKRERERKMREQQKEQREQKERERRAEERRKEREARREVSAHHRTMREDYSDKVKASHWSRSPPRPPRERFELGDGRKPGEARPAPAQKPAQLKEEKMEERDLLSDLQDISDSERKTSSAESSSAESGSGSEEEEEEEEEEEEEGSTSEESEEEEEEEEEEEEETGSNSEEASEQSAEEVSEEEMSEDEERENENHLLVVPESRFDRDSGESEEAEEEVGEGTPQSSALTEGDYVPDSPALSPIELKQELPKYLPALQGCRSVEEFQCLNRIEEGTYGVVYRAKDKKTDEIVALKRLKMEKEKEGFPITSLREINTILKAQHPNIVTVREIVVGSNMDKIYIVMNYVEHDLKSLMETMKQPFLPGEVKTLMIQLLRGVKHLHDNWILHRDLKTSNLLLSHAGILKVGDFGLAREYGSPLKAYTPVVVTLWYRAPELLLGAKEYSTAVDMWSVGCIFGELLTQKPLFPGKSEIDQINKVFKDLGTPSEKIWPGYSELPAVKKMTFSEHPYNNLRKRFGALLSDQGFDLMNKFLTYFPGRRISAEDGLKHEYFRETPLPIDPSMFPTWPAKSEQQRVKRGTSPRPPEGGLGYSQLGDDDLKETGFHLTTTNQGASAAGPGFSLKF
Casein kinase II subunit alpha (Homo sapiens), sequence (P68400 whole entry, looked up): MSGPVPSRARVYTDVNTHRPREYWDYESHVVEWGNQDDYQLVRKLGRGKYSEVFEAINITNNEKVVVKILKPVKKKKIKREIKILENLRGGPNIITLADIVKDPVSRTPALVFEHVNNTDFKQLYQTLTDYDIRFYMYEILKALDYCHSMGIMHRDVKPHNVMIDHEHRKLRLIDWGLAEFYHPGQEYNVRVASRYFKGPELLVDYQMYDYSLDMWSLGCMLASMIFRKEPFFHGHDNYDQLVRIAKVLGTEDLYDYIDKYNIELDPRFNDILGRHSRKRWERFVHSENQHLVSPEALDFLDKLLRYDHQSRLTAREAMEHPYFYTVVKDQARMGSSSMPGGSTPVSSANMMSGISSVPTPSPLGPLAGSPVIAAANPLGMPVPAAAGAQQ

Take `COc1cc2ncnc(N[C@H](C)c3cccc4ccccc34)c2cc1OC`: the Activity in assay [1] is 70%; in assay [2] it was 79%; in assay [3], 96%; in assay [4], 91%; in assay [5], 67%; in assay [6], 87%. Further, the Activity in assay [7] and in assay [8] was 100% throughout.

The record behind these values is ChEMBL document CHEMBL5678818, “Discovery of potent SOS1 inhibitors that block RAS activation via disruption of the RAS-SOS1 interaction” (Proc Natl Acad Sci U S A, 2019).
